Data on 37 compounds can be found in ChEMBL document CHEMBL1681741, “SAR studies on dihydropyrimidinone antibiotics” (Bioorg Med Chem Lett, 2011).

The test system of test [1] is Staphylococcus aureus. In words: Antimicrobial activity against methicillin-resistant Staphylococcus aureus by NCCLS method. In kind it is functional.
The test system of test [2] is Escherichia coli. In words: Inhibition of protein translation in Escherichia coli S30 cell extract. It is filed as functional.
Test [3] is described as follows: Inhibition of protein translation in rabbit reticulocytes. It is filed as functional, cell-based, Oryctolagus cuniculus.
The nature of test [4]: Selectivity index, ratio of IC50 for protein translation inhibition in Escherichia coli S30 cell extract to IC50 for protein translation inhibition in rabbit reticulocytes. It is filed as functional.
Test [5] deals with Staphylococcus aureus. The test is described as follows: Antimicrobial activity against methicillin-resistant Staphylococcus aureus in iv dosed mouse septicemia model. In kind it is functional. The note with it: read-out: PD50.
For test [6], the system named is Staphylococcus aureus. The test is described as follows: Antimicrobial activity against methicillin-resistant Staphylococcus aureus in mouse septicemia model. In kind it is functional.

≈ marks a conversion by molar mass, not a printed value.

As a reminder, the MIC is the lowest concentration found to suppress growth. The IC50 is the concentration at which inhibition is half-maximal. Read a high IC50 as weaker potency in that assay. For the compound `CN(C(=O)C[C@@H](N)CCCCN)C1CN=C(NC(N)=O)NC1=O` (mixture of isomers), the minimal inhibitory concentration (MIC) in test [1] worked out at 64 µg/mL. Moreover, the IC50 in test [2] worked out at 6.5 µM; in test [3] it was 39.8 µM. In test [4], the Selectivity ratio is on record as 6.
As to `CN(C(=O)C[C@@H](N)CCCN)C1CN=C(NC(N)=O)NC1=O` (mixture of isomers), it took 64 µg/mL to inhibit growth in test [1] (MIC). The figures for the half-inhibitory concentration (IC50) in test [2] and in test [3] were 9 µM and < 5 µM, respectively. For the same compound, in test [4], the Selectivity ratio is recorded as <0.6.
Consider `CN(C(=O)C[C@@H](N)CCCN=C(N)N)C1CN=C(NC(N)=O)NC1=O` (mixture of isomers), for which the MIC worked out at 8 µg/mL in test [1] and 12.8 µg/mL in test [6]. In test [3], this compound yielded an IC50 of 0.2 µM. The Selectivity ratio in test [4] is 0.67. For the same compound, in test [5], the ED50 was 0.7 mg/kg.
On to `CC/N=C(/N)NCCC[C@H](N)CC(=O)N(C)C1CN=C(NC(N)=O)NC1=O` (mixture of isomers), for which the MIC in test [1] is > 256 µg/mL. Moreover, the results for the IC50 in test [2] and in test [3] were 2.4 µM and 27.4 µM, respectively.
Consider `CCN(C(=O)C[C@@H](N)CCCNC(=N)N)C1CNC(NC(N)=O)=NC1=O` (mixture of isomers), for which the lowest concentration to inhibit growth in test [1] (MIC) was 256 µg/mL. Further, the concentration for half-maximal inhibition (IC50) is 1.8 µM in test [2] and 45 µM in test [3]. Moreover, the Selectivity ratio in test [4] was 25.
The compound `CC(=O)NC1=NC(=O)C(N(C)C(=O)C[C@@H](N)CCCNC(=N)N)CN1` (mixture of isomers) gave an MIC in test [1] of 8 µg/mL. Also, the IC50 in test [2] was found to be 0.1 µM; in test [3] it was 0.2 µM. Also, the Selectivity ratio in test [4] is recorded as 2.
In the case of `CCC(=O)NC1=NC(=O)C(N(C)C(=O)C[C@@H](N)CCCNC(=N)N)CN1` (mixture of isomers), the minimum inhibitory concentration (MIC) in test [1] was 16 µg/mL. Also, the IC50 in test [2] and in test [3] was < 5 µM each time.
With `CC(=O)N(C)C1=NC(=O)C(N(C)C(=O)C[C@@H](N)CCCNC(=N)N)CN1` (mixture of isomers), the MIC in test [1] stood at 64 µg/mL. Besides, the results for the half-maximal inhibitory concentration (IC50) in test [2] and in test [3] were 6.8 µM and 21 µM, respectively. The Selectivity ratio in test [4] is 3.1.
Take `CN(C)C(=O)NC1=NC(=O)C(N(C)C(=O)C[C@@H](N)CCCNC(=N)N)CN1` (mixture of isomers): in test [1], the MIC was > 500 µg/mL. The concentration for half-maximal inhibition (IC50) in test [2] is 8.8 µM; in test [3], 19.7 µM. Further, the Selectivity ratio in test [4] is on record as 3.4.
`CN(C(=O)C[C@@H](N)CCCNC(=N)N)C1CNC(N2CCNC2=O)=NC1=O` (mixture of isomers): the MIC in test [1] is > 500 µg/mL. In addition, the IC50 in test [2] and in test [3] was > 500 µM each time.
Turning to `CN1CC(N(C)C(=O)C[C@@H](N)CCCNC(=N)N)C(=O)N=C1NC(N)=O` (mixture of isomers), the minimum inhibitory concentration (MIC) in test [1] is > 500 µg/mL. Moreover, the concentration for half-maximal inhibition (IC50) in test [2] and in test [3] was > 500 µM in each case.
For the compound `CN1C(=O)C(N(C)C(=O)C[C@@H](N)CCCNC(=N)N)CN=C1NC(N)=O` (mixture of isomers), the minimal inhibitory concentration (MIC) in test [1] was > 500 µg/mL. Besides, the half-maximal inhibitory concentration (IC50) in test [2] and in test [3] was > 500 µM each time.
Regarding `CN(C(=O)C[C@@H](N)CCCNC(=N)N)C1CN=C(NC(N)=O)NC1` (mixture of isomers), in test [1], the minimal inhibitory concentration (MIC) is > 256 µg/mL. The IC50 in test [2] was 121 µM.
`CN(C(=O)C[C@@H](N)CCCNC(=N)N)c1ccc(NC(N)=O)[nH]c1=O` (mixture of isomers): the minimum inhibitory concentration (MIC) in test [1] was > 500 µg/mL. In addition, the 50% inhibitory concentration (IC50) in test [2] was > 500 µM; in test [3], 56 µM.
`CC(=O)NC1=CC(=O)C(N(C)C(=O)C[C@@H](N)CCCNC(=N)N)CN1` (mixture of isomers): in test [1], the MIC was > 500 µg/mL. Besides, the IC50 in test [2] and in test [3] was > 500 µM in each case.
Consider `CN(CC1CNC(NC(N)=O)=NC1=O)C(=O)C[C@@H](N)CCCNC(=N)N` (mixture of isomers), for which the minimum inhibitory concentration (MIC) in test [1] is > 500 µg/mL. Further, the half-inhibitory concentration (IC50) in test [2] came out at 51 µM; in test [3] it was 56 µM. The Selectivity ratio in test [4] was determined as 1.1.
Consider `CN(C(=O)C[C@@H](N)CCCCCN)C1CNC(NC(N)=O)=NC1=O` (mixture of isomers), for which the MIC in test [1] was 16 µg/mL. In addition, the IC50 in test [2] was 5 µM; in test [3] it was 10 µM. The Selectivity ratio in test [4] is on record as 2.
In turn, `CN[C@@H](CCCCN)CC(=O)N(C)C1CNC(NC(N)=O)=NC1=O` (mixture of isomers) displayed a minimum inhibitory concentration (MIC) in test [1] of 128 µg/mL. Besides, the IC50 in test [2] is 25 µM; in test [3], 5 µM. Also, the Selectivity ratio in test [4] came out at 0.2.
In the case of `CN(C(=O)C[C@H](CCCCN)NC=O)C1CNC(NC(N)=O)=NC1=O` (mixture of isomers), in test [1], the MIC was > 500 µg/mL. Moreover, the concentration for half-maximal inhibition (IC50) in test [2] and in test [3] was > 500 µM each time.
With `CN(C(=O)C[C@@H](N)CCCNC(N)=O)C1CNC(NC(N)=O)=NC1=O` (mixture of isomers), the MIC in test [1] was > 500 µg/mL. Moreover, the IC50 in test [2] and in test [3] was > 500 µM throughout.
As for `CN(C(=O)C[C@@H](N)CCC(=O)NC(=N)N)C1CNC(NC(N)=O)=NC1=O` (mixture of isomers), in test [1], the minimal inhibitory concentration (MIC) is > 500 µg/mL. Besides, the 50% inhibitory concentration (IC50) came to 226 µM in test [2] and 7 µM in test [3]. The Selectivity ratio in test [4] is recorded as 0.03.
For the compound `CC(=O)NC(=N)NCCC[C@H](N)CC(=O)N(C)C1CNC(NC(N)=O)=NC1=O` (mixture of isomers), the minimum inhibitory concentration (MIC) in test [1] is > 256 µg/mL. Besides, the 50% inhibitory concentration (IC50) in test [2] is 106 µM.
The compound `C/N=C(/NC)NCCC[C@H](N)CC(=O)N(C)C1CNC(NC(N)=O)=NC1=O` (mixture of isomers) gave an MIC in test [1] of 256 µg/mL. Moreover, the 50% inhibitory concentration (IC50) was determined as 1.3 µM in test [2] and 26.3 µM in test [3]. The Selectivity ratio in test [4] was 20.
The like results for `CN(C)C(=N)NCCC[C@H](N)CC(=O)N(C)C1CNC(NC(N)=O)=NC1=O` (mixture of isomers) were, in that order, 64 µg/mL, 4.2 µM, 20.6 µM and 4.9.
On to `CN(C(=O)C[C@@H](N)CCCN/C(N)=N\O)C1CNC(NC(N)=O)=NC1=O` (mixture of isomers), for which, in test [1], the MIC was 64 µg/mL. Besides, the IC50 is 8.2 µM in test [2] and 23.2 µM in test [3]. Moreover, in test [4], the Selectivity ratio worked out at 2.8.
The like results for `CN(C(=O)C[C@@H](N)CCCN1CCNC1=N)C1CNC(NC(N)=O)=NC1=O` (mixture of isomers) were, in that order, 128 µg/mL, 4.2 µM, 35 µM and 8.3.
Compound `CN(C(=O)C[C@@H](N)c1cccc(NC(=N)N)c1)C1CNC(NC(N)=O)=NC1=O` (mixture of isomers) registered a minimum inhibitory concentration (MIC) in test [1] of 256 µg/mL. For the same compound, the figures for the half-inhibitory concentration (IC50) in test [2] and in test [3] were 0.15 µM and 1.9 µM, respectively. For the same compound, in test [4], the Selectivity ratio was 10.
`CN(C(=O)C[C@@H](N)Cc1ccc(C(=N)N)cc1)C1CNC(NC(N)=O)=NC1=O` (mixture of isomers) had an MIC in test [1] of 512 µg/mL. In addition, the values for the IC50 in test [2] and in test [3] were 0.51 µM and 12.3 µM, respectively. In test [4], the Selectivity ratio is on record as 8.2.
The like results for `CN(C(=O)C[C@@H](N)CC1CCNCC1)C1CNC(NC(N)=O)=NC1=O` (mixture of isomers) were, in that order, 64 µg/mL, 6.6 µM, 6.6 µM and 1.
Turning to `CN(C(=O)C[C@@H](N)CC1CCN(C(=N)N)CC1)C1CNC(NC(N)=O)=NC1=O` (mixture of isomers), the minimum inhibitory concentration (MIC) in test [1] and in test [6] was 16 µg/mL in each case. Further, the IC50 in test [2] was found to be 0.11 µM; in test [3], 0.75 µM. For the same compound, the Selectivity ratio in test [4] is 6.8. Besides, the ED50 in test [5] turned out to be 2.4 mg/kg.
As for `C/N=C(/N)N1CCC(C[C@H](N)CC(=O)N(C)C2CNC(NC(N)=O)=NC2=O)CC1` (mixture of isomers), the minimal inhibitory concentration (MIC) in test [1] was found to be 64 µg/mL. In addition, the 50% inhibitory concentration (IC50) in test [2] amounted to 3.6 µM; in test [3] it was 53 µM. In addition, in test [4], the Selectivity ratio is 14.7.
The like results for `CN(C(=O)C[C@@H](N)C1CCN(C(=N)N)CC1)C1CNC(NC(N)=O)=NC1=O` (mixture of isomers) were, in that order, 16 µg/mL, 0.18 µM, 0.23 µM and 1.3.
On to `CN(C(=O)C[C@@H](N)C[C@H]1CCNC1)C1CNC(NC(N)=O)=NC1=O` (mixture of isomers), for which the MIC in test [1] was 64 µg/mL. For the same compound, the IC50 came to 2 µM in test [2] and 0.6 µM in test [3]. The Selectivity ratio in test [4] worked out at 0.3.
In the case of `CN(C(=O)C[C@@H](N)C[C@@H]1CCNC1)C1CNC(NC(N)=O)=NC1=O` (mixture of isomers), the MIC in test [1] amounted to 128 µg/mL. Besides, the IC50 came to 3.9 µM in test [2] and 3.4 µM in test [3]. In test [4], the Selectivity ratio is 0.9.
In the case of `CN(C(=O)C[C@@H](N)C[C@H]1CCN(C(=N)N)C1)C1CNC(NC(N)=O)=NC1=O` (mixture of isomers), the MIC in test [1] worked out at 8 µg/mL; in test [6] it was 16 µg/mL. Also, the IC50 was 0.17 µM in test [2] and 0.45 µM in test [3]. For the same compound, in test [4], the Selectivity ratio was determined as 2.6. Further, the ED50 in test [5] came out at 1.5 mg/kg.
For the compound `C/N=C(/N)NCCC[C@H](N)CC(=O)N(C)C1CN=C(NC(N)=O)NC1=O` (mixture of isomers), the MIC was found to be 8 µg/mL in test [1] and 32 µg/mL in test [6]. Further, the figures for the half-inhibitory concentration (IC50) in test [2] and in test [3] were 0.2 µM and 1.3 µM, respectively. For the same compound, the Selectivity ratio in test [4] turned out to be 6.5. The ED50 in test [5] is 3.3 mg/kg.
Consider `CN[C@H](CC(C)C)C(=O)N[C@H]1C(=O)N[C@@H](CC(N)=O)C(=O)N[C@H]2C(=O)N[C@H]3C(=O)N[C@H](C(=O)N[C@H](C(=O)O)c4cc(O)cc(O)c4-c4cc3ccc4O)[C@H](O)c3ccc(c(Cl)c3)Oc3cc2cc(c3O[C@@H]2O[C@H](CO)[C@@H](O)[C@H](O)[C@H]2O[C@H]2C[C@](C)(N)[C@H](O)[C@H](C)O2)Oc2ccc(cc2Cl)[C@H]1O` [VANCOMYCIN], for which the ED50 in test [5] turned out to be 9.6 mg/kg. This compound also gave a minimum inhibitory concentration (MIC) in test [6] of 0.8 µg/mL (≈ 0.552 µM).
